Assay results taken from ChEMBL document CHEMBL1201862, “PubChem BioAssay data set” (2004).
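Step 1: Grow cells in 96-well plates. Step 2: Expose to compound for 48 hours at 5 concentrations. Step 3: Interpolate endpoints linearly; if unreached, use highest concentration. GI50 is the concentration that inhibits growth by half.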 Active and inactive are the calls of the source. Rule as the data show it: active = GI50 up to about 1.1 µM and inactive = higher.

Columns and labels:
Assay in all cases: DTP human tumour cell line panel, 48 h
[1] = system: A549
[2] = system: K562
[3] = system: MOLT-4
[4] = system: OVCAR-4
[5] = system: EKVX
[6] = system: LOX IMVI
[7] = system: SN12C
[8] = system: SR
[9] = system: NCI/ADR-RES
[10] = system: HL-60
[11] = system: OVCAR-5
[12] = system: SNB-19
[13] = system: IGROV-1
[14] = system: SK-MEL-5
[15] = system: HOP-62
[16] = system: SK-MEL-2
[17] = system: SF-539
[18] = system: SK-MEL-28
[19] = system: SK-OV-3
[20] = system: TK-10

SMILES | GI50 [1] | GI50 [2] | GI50 [3] | GI50 [4] | GI50 [5] | GI50 [6] | GI50 [7] | GI50 [8] | GI50 [9] | GI50 [10] | GI50 [11] | GI50 [12] | GI50 [13] | GI50 [14] | GI50 [15] | GI50 [16] | GI50 [17] | GI50 [18] | GI50 [19] | GI50 [20]
COc1ccc(/C(Cl)=C(\C=O)c2cc(OC)c(OC)c(OC)c2)cc1OC | 33.3 µM (inactive) | 25.7 µM (inactive) | 22.4 µM (inactive) | 24.3 µM (inactive) | 24.7 µM (inactive) | 19.7 µM (inactive) | 23.2 µM (inactive) | > 100 µM (inactive) | 13.2 µM (inactive) | 5.78 µM (inactive) | 67.8 µM (inactive) | > 52.6 µM (inactive) | 44.5 µM (inactive) | 14.8 µM (inactive) | 29.5 µM (inactive) | 19.6 µM (inactive) | 26.2 µM (inactive) | 61.8 µM (inactive) | 72.4 µM (inactive) | 56.6 µM (inactive)
COC(=O)C(Cc1c[nH]c2ccccc12)NC1=Nc2ccncc2S(=O)(=O)N1c1cccc(OC(C)C)c1 (stereo not given) | 29.6 µM (inactive) | 41.8 µM (inactive) | 8.91 µM (inactive) | 37.2 µM (inactive) | 36.6 µM (inactive) | 26.4 µM (inactive) | 48.1 µM (inactive) | 21.8 µM (inactive) | 20.9 µM (inactive) | 22.4 µM (inactive) | > 100 µM (inactive) | 68.1 µM (inactive) | 18.7 µM (inactive) | 25.5 µM (inactive) | 56.2 µM (inactive) | 39.7 µM (inactive) | 80.5 µM (inactive) | > 100 µM (inactive) | > 100 µM (inactive) | > 100 µM (inactive)
NC1(C(=O)OCc2ccccc2)CCCC1 | 28.8 µM (inactive) | 14.8 µM (inactive) | 11.8 µM (inactive) | 15.1 µM (inactive) | 24.5 µM (inactive) | 18.2 µM (inactive) | 25.1 µM (inactive) | 33.5 µM (inactive) | 28.6 µM (inactive) | 0.21 µM (active) | 28.4 µM (inactive) | 21.2 µM (inactive) | 18.5 µM (inactive) | 16.6 µM (inactive) | 18.8 µM (inactive) | 17.9 µM (inactive) | 11.2 µM (inactive) | 22.6 µM (inactive) | 21.9 µM (inactive) | 82.4 µM (inactive)
[O-][n+]1onc2c3nn(-c4ccccc4)nc3ccc21 | > 100 µM (inactive) | > 100 µM (inactive) | 5.08 µM (inactive) | > 100 µM (inactive) | > 74.8 µM (inactive) | 13.2 µM (inactive) | > 100 µM (inactive) | 4.43 µM (inactive) | > 100 µM (inactive) | 2.35 µM (inactive) | > 100 µM (inactive) | > 100 µM (inactive) | > 100 µM (inactive) | > 100 µM (inactive) | 77.1 µM (inactive) | > 100 µM (inactive) | > 100 µM (inactive) | > 100 µM (inactive) | > 100 µM (inactive) | > 71.1 µM (inactive)
